This is an account of results in patent US10889812B2, “Short non-coding protein regulatory RNAs (sprRNAs) and methods of use” (University of Maryland, Baltimore, priority 2014, dated 2021).

“Also recorded” adds a separate entry of the source.

The subject of data set [1] is HBE4 cells. Description: Trans-well invasion assay. Particulars: HBE4, 12 hrs, vs Scr, after 15% downward adjustment. The data set is classed as cell-based, human. From the text: We then tested the potential impact of piR-L-163 in cell migration and invasion, two of the properties involving ERM's biological functions (Fehon, R. G., Mclatchey, A. I. & Bretscher, A. Organizing the cell cortex: the role of ERM proteins. Nat Rev Mol Cell Biol. 11, 276-287 (2010); Hunter, K. W. Ezrin, a key component in tumor metastasis. Trends Mol. Med. 10, 201-204 (2004); Luo, Y. et al. Recognition of CD146 as an ERM-binding protein offers novel mechanisms for melanoma cell migration. Oncogene 31, 306-321 (2013); Clucas, J. & Valderrama, F. ERM proteins in cancer progression. J Cell Sci. 128, 1253 (2015)).
Briefly, 24 hrs after transfection, 6×10^4 cells were placed in the upper chamber of Matrigel Invasion Chambers (BD Bioscience) with growth factor-free Keratinocyte-SFM and the bottom chamber were exposed to Keratinocyte-SFM medium supplemented with L-Glutamine, prequalified human recombinant EGF 1-53 and BPE. Invading cells were evaluated after 12 hrs according to the manufacturer's instruction. The numbers of invading cells were adjusted 15% downwards for Ant-163 treated cells or 15% upwards for piR-L-163 treated cells to compensate the differences for the proliferation rates.

Data set [2] relates to HBE4 cells. Description: Quantitative cell migration assay. The data set is classed as cell-based, human. Particulars: HBE4, vs Scr control. From the text:
(§1) For cell migration, we used two complementary assays. […] To compensate potential differences in the cell numbers among different treatment conditions, we seeded 10% less cells for Ant-163 treated HBE4 cells and 10% more cells for piR-L-163 transfected H1792 cells.
(§2) Two complimentary methods were used. For quantitative fluorescent dye assay, Innocyto™ Cell migration Assay kit (EMD Millipore) was used. Briefly, 24 hrs after treatment, 1×10^5 cells (10% less for Ant-163 treated cells or 10% more for piR-L-163 treated cells) were loaded to the upper chamber with growth factor-free Keratinocyte-SFM for (HBE4 cells) or serum-free DMEM (for H1792 cells) with the bottom chamber exposed to completed culture medium. Negative controls were used with 3 μM Latrunculin A. After 12 hrs incubation, fluorescence was measured using a fluorescence plate reader 485 nm (excitation) and 520 nm (emission) according to the manufacturer's instruction. For wound-healing assay, cells (24 hrs after treatment with different DNA or RNA oligonucleotides) were grown to confluence followed by scratching with a pipette tip to create a gap. The floating cells were removed and the gaps were monitored/photographed every 12 hrs.

Data set [3] has as its system HBE4 cells. Description: Wound healing assay (gap closure). It is filed as cell-based, human. Particulars: HBE4, vs Scr control.
Source text: as §1, §2

The target in data set [4] is T1, mutant form of moesin with RRRKPDT deletion (Moesin-DM) (Homo sapiens, UniProt P26038, DEL293-299).
T1 construct: expressed in transfected cells; host or cells: H522 cells, pcDNA3.1(+) plasmid
Description: IP/RT-PCR binding to introduced moesin in H522 cells. Particulars: H522 cells co-transfected. An excerpt:
(§3) To determine potential element of ERM proteins critical for their binding with piR-L-163, we analyzed human and Drosophila moesin sequences using BindN (http://bioinfo.ggc.org/bindn/) and identified RRRKPDT (SEQ ID NO:488) at position 293-299 as a candidate RNA binding element (FIG. 12a, b). We then constructed plasmids containing either wild-type human moesin (Moesin-WT) or a mutant form of moesin with RRRKPDT (SEQ ID NO:488) deletion (Moesin-DM). Both plasmids produce high levels of moesin proteins in the transfected cells (FIG. 5d). We used two cell lines (H522 and HBE4) to test if this element contributes to the binding between moesin and piR-L-163. H522 cells expressed extremely low level of endogenous p-ERM (FIG. 5c) and very low level of piR-L-163 (FIG. 11a). H522 cells transfected with piR-L-163 were simultaneously transfected with either Moesin-WT or Moesin-DM to determine the potential binding ability of the introduced moesin proteins with piR-L-163. We also used the non-functional piR-L-163M1 mutant to replace piR-L-163 in the experiment as a negative control. […] We next transfected HBE4 cells which expressed both p-ERM and piR-L-163 (FIG. 4e and FIG. 11a) with either Moesin-WT or Moesin-DM after knocked down the endogenous moesin in the cells. […]

In data set [5] the target is T2, wild-type human moesin (Moesin-WT) (Homo sapiens, UniProt P26038).
T2 construct: expressed in transfected cells; host or cells: H522 cells, pcDNA3.1(+) plasmid
The data set is described as above. Particulars: H522 cells co-transfected.
Source text: as §3

Data set [6] has as its system H1792 cells. Description: Quantitative cell migration assay. The data set is classed as cell-based, human. Particulars: H1792, vs Scr or Ant-163.
Source text: as §1, §2

For data set [7], the system named is H1792 cells. The data set can be described thus: Wound healing assay (gap closure). The data set is classed as cell-based, human. Particulars: H1792, vs Scr control, Ant-163 or a mutant piR-L-163.
Source text: as §1, §2

T2 sequence (P26038 whole entry): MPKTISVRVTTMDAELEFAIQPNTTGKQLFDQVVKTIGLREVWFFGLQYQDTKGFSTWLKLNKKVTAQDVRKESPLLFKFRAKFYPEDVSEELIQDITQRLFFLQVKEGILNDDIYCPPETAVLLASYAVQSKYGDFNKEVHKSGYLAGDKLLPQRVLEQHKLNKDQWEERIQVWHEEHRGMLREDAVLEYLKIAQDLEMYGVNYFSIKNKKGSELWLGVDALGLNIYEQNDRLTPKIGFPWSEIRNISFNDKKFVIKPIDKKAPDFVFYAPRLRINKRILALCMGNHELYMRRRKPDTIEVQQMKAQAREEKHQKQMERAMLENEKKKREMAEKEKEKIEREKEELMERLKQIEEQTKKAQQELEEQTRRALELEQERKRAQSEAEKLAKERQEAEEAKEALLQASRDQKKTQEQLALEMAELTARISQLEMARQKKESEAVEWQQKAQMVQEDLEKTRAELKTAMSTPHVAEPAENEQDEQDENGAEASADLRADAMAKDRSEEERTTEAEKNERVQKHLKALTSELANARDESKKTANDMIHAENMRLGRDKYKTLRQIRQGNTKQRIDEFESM
T1 sequence (P26038 with tags, fused parts or gaps DEL293-299): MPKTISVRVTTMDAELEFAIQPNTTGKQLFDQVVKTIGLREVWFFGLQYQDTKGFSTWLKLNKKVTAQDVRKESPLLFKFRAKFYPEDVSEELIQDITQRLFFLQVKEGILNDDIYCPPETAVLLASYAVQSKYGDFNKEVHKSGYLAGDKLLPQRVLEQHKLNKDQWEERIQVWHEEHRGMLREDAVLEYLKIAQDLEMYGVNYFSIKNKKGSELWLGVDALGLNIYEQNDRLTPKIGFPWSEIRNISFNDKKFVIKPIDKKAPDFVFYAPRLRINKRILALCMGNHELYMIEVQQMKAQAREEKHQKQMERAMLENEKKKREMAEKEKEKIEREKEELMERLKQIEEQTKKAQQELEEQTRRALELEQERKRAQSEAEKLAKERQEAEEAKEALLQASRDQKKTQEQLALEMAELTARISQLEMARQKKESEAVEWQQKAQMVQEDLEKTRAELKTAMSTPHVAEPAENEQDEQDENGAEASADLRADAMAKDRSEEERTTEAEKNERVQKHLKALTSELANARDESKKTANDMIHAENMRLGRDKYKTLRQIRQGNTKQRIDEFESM

With “Ant-163: DNA sequence antisense to piR-L-163, SEQ ID NO:496, 5′-GGTCAGAGAATCAAAGTAACATCATGATAT-3′ (DNA, backbone and methylation of C not given here)”, the invasion capability result in the data set on HBE4 cells [1] was “significantly increased invasion capability; also recorded: increased invading cells”. Further, the cell migration result with HBE4 cells [2] is reported as “significantly increased cell migration”. Also, in the data set with HBE4 cells [3], the gap closure result is given as “faster gap closure”.
Turning to “piR-L-163: sprRNA, SEQ ID NO:282; piRNA-L aligned to intron 10 of LAMC2; AUAUCAUGAUGUUACUUUGAUUCUCUGACC with 3′ 2′-O-methylation (listed as RNA, chemistry not fully specified; listed as Homo sapiens)”, in data set [4], the “binding to Moesin-DM” value is on record as “failed to bind”. Also, the “binding to Moesin-WT” value in data set [5] was “bound to piR-L-163”. The cell migration result in the data set with H1792 cells [6] is recorded as “significantly decreased cell migration”. In addition, the gap closure result with H1792 cells [7] is “slower gap closure”.
